{
  "source": "patent US20230312584A1",
  "about": "“SALT OF NUCLEOSIDE ANALOG, AND CRYSTAL FORM, PHARMACEUTICAL COMPOSITION AND USE THEREOF” (priority 2020, published 2023)",
  "key": {"[1]": {"test": "Hygroscopicity test", "type": "physicochemical", "conditions": "25° C., RH80%, 24 hours", "method": "An appropriate amount of a test product is taken and spread in a glass-stoppered weighing bottle that has been placed in an artificial climate box (temperature is 25° C.±1° C., relative humidity is 80%±2%) for 24 hours. The weighing bottle is opened, put together with the stopper in the artificial climate box (the temperature is 25° C.±1° C., the relative humidity is 80%±2%) for 24 hours, and then taken out. The moisture content of the test product before and after being placed in the artificial climate box is measured, and the hygroscopicity is measured by comparing the change in moisture content."}, "[2]": {"test": "physchem", "type": "physicochemical", "conditions": "for Solubility in water: 30 min", "method": "About 10 mg of the test product is taken and put in a 1.5 mL sample tube, to which 1 mL of deionized water is added, and then the sample tube is placed in a constant temperature mixer and shaken at 37° C. for 30 minutes; after shaking, the sample tube is placed in a centrifuge to undergo centrifugation for 2 minutes. Then, 500 μL of the supernatant is taken and diluted with acetonitrile to an appropriate concentration, which is used as a test sample solution for HPLC analysis.\nAn appropriate amount of sample was weighed and put in a glass test tube, to which a selected solvent was gradually added. The clarification process was observed."}, "[3]": {"tested_on": "SARS-CoV-2", "conditions": "according to experimental tests; compounds of CN 202010313870.X; cited from earlier work"}, "[4]": {"tested_on": "a variety of other RNA viruses", "conditions": "according to experimental tests; compounds of CN 202010313870.X; cited from earlier work"}, "[5]": {"type": "physicochemical", "method": "The test product is placed in suitable clean containers, and then placed under conditions of high temperature (80° C.), high humidity (25° C., relative humidity 92.5%), and light (light intensity 4500±500 1× and 90 μw/cm^2), respectively, for 7 days, and samples are taken on the 7th day and tested according to the stability inspection items."}},
  "note": "Structures can show the parent of a compound that is named as a salt. Where two headings read alike, the source gives them in different places.",
  "data": [
    {"smiles": "O=C(O)/C=C\\C(=O)O.[2H]c1cc([C@]2(C#N)O[C@H](COC(=O)C(C)C)[C@@H](OC(=O)C(C)C)[C@H]2OC(=O)C(C)C)n2ncnc(N)c12", "note": "[Maleate of Compound Z, (2R,3R,4R,5R)-2-(4-aminopyrrolo[2,1-f][1,2,4]triazin-7-yl-5-d)-2-cyano-5-(isobutyryloxymethyl)tetrahydrofuran-3,4-diyl bis(2-methylpropanoate) maleate]", "values": [
      {"measurement": "increase in moisture content", "setting": "[1]", "result": "moisture content of <0.1%"},
      {"measurement": "Hygroscopicity", "setting": "[1]; listed as maleate of Compound Z, maleate", "result": "no hygroscopicity"},
      {"measurement": "solubility at 30 min", "setting": "[2]; 37 °C, water, thermodynamic from solid, Solubility in water", "result": 351, "unit": "µg/mL"}
    ]},
    {"smiles": "CC(C)C(=O)OC[C@H]1O[C@@](C#N)(c2ccc3c(N)ncnn23)[C@H](OC(=O)C(C)C)[C@@H]1OC(=O)C(C)C", "note": "[Compound W, (2R,3R,4R,5R)-2-(4-aminopyrrolo[2,1-f][1,2,4]triazin-7-yl)-2-cyano-5-(isobutyryloxymethyl)tetrahydrofuran-3,4-diyl bis(2-methylpropanoate)]", "values": [
      {"measurement": "water solubility", "setting": "[2]", "result": "poor water solubility"},
      {"measurement": "anti-SARS-CoV-2 activity", "setting": "[3]", "result": "significant"},
      {"measurement": "inhibitory effect on a variety of other RNA viruses", "setting": "[4]", "result": "good inhibitory effect"}
    ]},
    {"smiles": "[2H]c1cc([C@]2(C#N)O[C@H](COC(=O)C(C)C)[C@@H](OC(=O)C(C)C)[C@H]2OC(=O)C(C)C)n2ncnc(N)c12", "note": "[Nitrate of Compound Z, (2R,3R,4R,5R)-2-(4-aminopyrrolo[2,1-f][1,2,4]triazin-7-yl-5-d)-2-cyano-5-(isobutyryloxymethyl)tetrahydrofuran-3,4-diyl bis(2-methylpropanoate) nitrate]", "values": [
      {"measurement": "Hygroscopicity", "setting": "[1]; listed as nitrate of Compound Z, nitrate", "result": "no hygroscopicity"},
      {"measurement": "increase in moisture content", "setting": "[1]; nitrate", "result": "moisture content of <0.1%"},
      {"measurement": "Stability", "setting": "[5]; 7 days", "result": "(80° C.), the solid melted, decomposed,"}
    ]},
    {"smiles": "[2H]c1cc([C@]2(C#N)O[C@H](COC(=O)C(C)C)[C@@H](OC(=O)C(C)C)[C@H]2OC(=O)C(C)C)n2ncnc(N)c12", "note": "[Compound Z, (2R,3R,4R,5R)-2-(4-aminopyrrolo[2,1-f][1,2,4]triazin-7-yl-5-d)-2-cyano-5-(isobutyryloxymethyl)tetrahydrofuran-3,4-diyl bis(2-methylpropanoate)]", "values": [
      {"measurement": "water solubility", "setting": "[2]", "result": "poor water solubility"},
      {"measurement": "Solubility in water", "setting": "[2]", "result": 29, "unit": "µg/mL"},
      {"measurement": "anti-SARS-CoV-2 activity", "setting": "[3]", "result": "significant"},
      {"measurement": "inhibitory effect on a variety of other RNA viruses", "setting": "[4]", "result": "good inhibitory effect"}
    ]},
    {"smiles": "Br.CC(C)C(=O)OC[C@H]1O[C@@](C#N)(c2ccc3c(N)ncnn23)[C@H](OC(=O)C(C)C)[C@@H]1OC(=O)C(C)C", "note": "[Hydrobromide of Compound W, (2R,3R,4R,5R)-2-(4-aminopyrrolo[2,1-f][1,2,4]triazin-7-yl)-2-cyano-5-(isobutyryloxymethyl)tetrahydrofuran-3,4-diyl bis(2-methylpropanoate) hydrobromide]", "values": [
      {"measurement": "Hygroscopicity", "setting": "[1]", "result": "no hygroscopicity"},
      {"measurement": "increase in moisture content", "setting": "[1]", "result": "RH80%, with an increase in moisture content of <0.1%,"},
      {"measurement": "Stability", "setting": "[5]; 7 days", "result": "Good stability under high temperature (80° C.), high"}
    ]},
    {"smiles": "[2H]c1cc([C@]2(C#N)O[C@H](COC(=O)C(C)C)[C@@H](OC(=O)C(C)C)[C@H]2OC(=O)C(C)C)n2ncnc(N)c12", "note": "[Mesylate of Compound Z, (2R,3R,4R,5R)-2-(4-aminopyrrolo[2,1-f][1,2,4]triazin-7-yl-5-d)-2-cyano-5-(isobutyryloxymethyl)tetrahydrofuran-3,4-diyl bis(2-methylpropanoate) mesylate]", "values": [
      {"measurement": "increase in moisture content", "setting": "[1]", "result": "moisture content of <0.2%"},
      {"measurement": "Hygroscopicity", "setting": "[1]; listed as mesylate of Compound Z, mesylate", "result": "no hygroscopicity"},
      {"measurement": "Stability", "setting": "[5]", "result": "decomposed obviously and had a peculiar smell."},
      {"measurement": "Solubility in water", "setting": "[2]", "result": 464, "unit": "µg/mL"}
    ]},
    {"smiles": "Cl.[2H]c1cc([C@]2(C#N)O[C@H](COC(=O)C(C)C)[C@@H](OC(=O)C(C)C)[C@H]2OC(=O)C(C)C)n2ncnc(N)c12", "note": "[Hydrochloride of Compound Z, (2R,3R,4R,5R)-2-(4-aminopyrrolo[2,1-f][1,2,4]triazin-7-yl-5-d)-2-cyano-5-(isobutyryloxymethyl)tetrahydrofuran-3,4-diyl bis(2-methylpropanoate) hydrochloride]", "values": [
      {"measurement": "increase in moisture content", "setting": "[1]", "result": "moisture content of <0.1%"},
      {"measurement": "Hygroscopicity", "setting": "[1]; listed as hydrochloride of Compound Z, hydrochloride", "result": "no hygroscopicity"}
    ]}
  ]
}
